# Biological target: T1, PD-1/PD-L1 (Homo sapiens, UniProt Q9NZQ7)
# T1 construct: purchased Cisbio 63ADK000CPDEC
# Assay: PD-1/PD-L1 homogeneous time-resolved fluorescence (HTRF) binding assay
# Conditions: 665 nm/620 nm ratio
# Excerpt: Test Example 1: Detect the Inhibitory Effect of the Compound to the Binding of PD-1/PD-L1 Protein
# The PD-1/PD-L1 homogeneous time-resolved fluorescence method is used to detect the binding ability of the compound with PD-L1.
# PD-1/PD-L1 binding assay kit (Cisbio, Cat #63ADK000CPDEC) was chosen, which contains two proteins Tag 1-PD-L1 and Tag 2-PD-1, and two antibodies Anti-Tag1-Eu^3+ and Anti-Tag2-XL 665. The principle of detection was: Anti-tag1-Eu^3+ was used as the donor of HTRF, and Anti-Tag2-XL 665 was used as the acceptor of HTRF. When Tag 1-PD-L1 interacts with Tag 2-PD-1, the added HTRF donor and the acceptor are close to each other. After the donor has received the excitation energy, part of the energy was transferred to the acceptor, thus generating 665 nm emission light. […] The inhibitory effect of the compound can be determined by comparing the ratio of 665 nm/620 nm. Tag 1-PD-L1 was diluted with Diluent buffer (cat #62DLBDDF) to a working concentration of 10 nM, Tag 2-PD-1 was diluted with Diluent buffer to a working concentration of 500 nM, Anti-Tag1-Eu^3+ was diluted with detection buffer (cat #62DB1FDG) at a ratio of 1:100, Anti-Tag2-XL 665 was diluted with detection buffer at a ratio of 1:20, and the compound to be detected was diluted with diluent buffer to a final concentration of 2×. Compound solution (2 μL) was added to each well of a 384-well plate, then Tag 1-PD-L1 (4 μL) and Tag 2-PD-1 (4 μL) were added successively. The mixture was incubated at room temperature for 15 minutes. Then Anti-Tag1-Eu^3+ (5 μL) and Anti-Tag2-XL 665 (5 μL) were added, and the mixture was incubated overnight at room temperature. BioTek Synergy™ Neo2 multifunctional microplate reader was used to detect so as to provide the 665 nm/620 nm ratio. PrismGraphd 5.02 was used to fit the IC50 curve.
# T1 sequence (Q9NZQ7 19-238 limits assumed): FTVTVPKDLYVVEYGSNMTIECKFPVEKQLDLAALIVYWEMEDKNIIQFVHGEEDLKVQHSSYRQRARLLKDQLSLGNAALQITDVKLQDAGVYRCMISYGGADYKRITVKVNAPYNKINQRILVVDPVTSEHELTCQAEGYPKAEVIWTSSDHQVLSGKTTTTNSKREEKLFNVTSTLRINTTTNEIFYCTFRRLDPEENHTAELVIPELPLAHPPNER
row,IC50 [nM],SMILES
1,< 100,COc1nc(-c2cccc(-c3cccc(Nc4nccc5sc(CN6CCC[C@@H]6C(=O)O)nc45)c3Cl)c2Cl)cc(C)c1CNC[C@@H]1CCC(=O)N1 [Compound 47]
2,< 100,COc1nc(-c2cccc(-c3cccc(Nc4nccc5sc(CN6C[C@@H](O)C[C@H]6C(=O)O)nc45)c3Cl)c2Cl)cc(C)c1CNC[C@@H]1CCC(=O)N1 [Compound 48]
3,< 100,COc1nc(-c2cccc(-c3cccc(Nc4nccc5sc(CN6CCC(C)(C(=O)O)CC6)nc45)c3Cl)c2Cl)cc(C)c1CNC[C@@H]1CCC(=O)N1 [Compound 49]
4,< 100,COc1nc(-c2cccc(-c3cccc(Nc4nccc5sc(CN[C@H]6CC[C@H](C(=O)O)CC6)nc45)c3Cl)c2Cl)cc(C)c1CNC[C@@H]1CCC(=O)N1 [Compound 50]
5,< 100,COc1nc(-c2cccc(-c3cccc(Nc4nccc5sc(CN[C@H]6CC[C@@H](C(=O)O)CC6)nc45)c3Cl)c2Cl)cc(C)c1CNC[C@@H]1CCC(=O)N1 [Compound 51]
6,< 100,COc1nc(-c2cccc(-c3cccc(Nc4nccc5sc(CN6CCC(CC(=O)O)C6)nc45)c3Cl)c2Cl)cc(C)c1CNC[C@@H]1CCC(=O)N1 (stereo partly drawn) [Compound 52]
7,< 100,COc1nc(-c2cccc(-c3cccc(Nc4nccc5sc(CN6CCC(CC(=O)O)CC6)nc45)c3Cl)c2Cl)cc(C)c1CNC[C@@H]1CCC(=O)N1 [Compound 53]
8,< 100,COc1cc(-c2cccc(-c3cccc(Nc4nccc5sc(CN6CCC(C(=O)O)CC6)nc45)c3Cl)c2Cl)cc(C)c1CNC[C@@H]1CCC(=O)N1 [Compound 55]
9,< 100,COc1nc(-c2cccc(-c3cccc(Nc4nccc5sc(CN6CCC(C#N)CC6)nc45)c3Cl)c2Cl)cc(C)c1CNC[C@@H]1CCC(=O)N1 [Compound 56]
